According to patent US6696418B1, “Somatostatin antagonists and agonists that act at the SST subtype 2 receptor” (Pfizer Inc., priority 1999, dated 2004):
Where no end group is shown, it is not given here.

Test system: GH4C1 cells
Experiment: Rat pituitary assay for somatostatin receptor antagonists (cAMP content of GH4C1 cells)
Type: cell-based
From the text: This assay is designed to quantitate the activity of antagonists of somatostatin that interact directly at the somatostatin receptor. The assay facilitates discovery of agents which increase growth hormone secretion by modulating the inhibitory effects of somatostatin. As aforementioned, somatostatin (also abbreviated SRIF) inhibits GH secretion in the anterior pituitary by binding to a high affinity membrane-bound (and G-protein coupled) receptor which is coupled negatively to adenyl cyclase, thereby reducing intracellular levels of cAMP that would otherwise facilitate, for example, secretion/release of GH from cytoplasmic granules. […] The screen is designed to quantitate the ability of test agents to reverse SRIF's inhibition of the elevated intracellular cAMP levels produced by VIP. […]
In particular, cyclic AMP (cAMP) content of the pituitary cell line GH4C1 was used to differentiate somatostatin agonists from antagonists. […] This afforded a convenient way to conduct a homogenous immunoradiometric assay of cAMP content in cells lysed in situ, following incubation of the cells with test compound. cAMP content in the GH4C1 cells was determined according to the manufacturer's instructions, by comparison with standards at concentrations from 10 to 1,000 nM cAMP. […]

Row | Compound | effect on cAMP content of the GH4C1 cells (100 nM VIP) | effect on VIP-elevated cAMP content of the GH4C1 cells (10 nM somatostatin 14 in the presence of 100 nM VIP)
1 | vasoactive intestinal peptide (HSDAVFTDNYTRLRKQMAVKKYLNSILN; ends and bridges not checked; UniProt P01282 125-152, looked up) [VIP] | increased cAMP content | –
2 | C[C@H](N)C(=O)NCC(=O)N[C@H]1CSSC[C@@H](C(=O)O)NC(=O)[C@H](CO)NC(=O)[C@H]([C@@H](C)O)NC(=O)[C@H](Cc2ccccc2)NC(=O)[C@H]([C@@H](C)O)NC(=O)[C@H](CCCCN)NC(=O)[C@H](Cc2c[nH]c3ccccc23)NC(=O)[C@H](Cc2ccccc2)NC(=O)[C@H](Cc2ccccc2)NC(=O)[C@H](CC(N)=O)NC(=O)[C@H](CCCCN)NC1=O [somatostatin, somatostatin 14] | – | partial inhibition
